Experimental data from patent publication US11186606B2, “Compositions and methods of modulating the immune response by activating alpha protein kinase 1” (Shanghai Yao Yuan Biotechnology Co., Ltd., priority 2017, dated 2021).

Assays:
ALPK1 [1] = target: T1, ALPK1 (Homo sapiens, UniProt Q96QP1); experiment: Thermal shift assay (SYPRO Orange) for binding to ALPK1; settings: ALPK1 7 uM
From the text: The thermal shift assay is widely used to determine the binding of a molecule to a protein of interest. The assay is based on the increase in thermal energy required for denaturation of a protein where another molecule is bound to the protein. SYPRO Orange is a fluorescent compound used in the detection of thermal shift. SYPRO Orange binds to hydrophobic surfaces of the protein, and water strongly quenches its fluorescence. When the protein unfolds, the exposed hydrophobic surfaces bind the dye, resulting in an increase in fluorescence. When another molecule is bound to the protein, an increase in the temperature required for unfolding of the protein is observed.
This assay system was used to determine whether or not chemically synthesized HBP, HMP-1bP, and H1b-ADP directly bind to ALPK1. […] Only H1b-ADP induced a shift of more than 1 degree, at each of the three highest concentrations tested, 5 uM, 25 uM, and 125 uM.

ALPK1 [2] = target: T1, ALPK1; experiment: Cell-free kinase assay of ALPK1 autophosphorylation (Western, anti-phospho-threonine); assay type: biochemical; settings: ALPK1 2 nM, ATP; H1b-ADP 10, 1, 0.2 nM; HBP and HMP-1bP 1, 10, 100 nM
Experimental: ALPK1 activation results in its autophosphorylation. Accordingly, we next asked whether the binding of H1b-ADP to ALPK1 was sufficient to induce ALPK1 autophosphorylation. Phosphorylation assays were performed according to standard protocols. Briefly, ALPK1 was incubated (2 nM, 25° C., 1 h) in assay buffer (20 al, 25 mM HEPES pH 7.5, 50 mM KCl, 0.1 mM EDTA, 0.1 mM EGTA, 2 mM DTT, 1.5 mM CaCl2, 10 mM MgCl2) with ATP and chemically synthesized HBP, HMP-1bP, or H1b-ADP followed by denaturing gel electrophoresis and Western analysis with an anti-phospho-threonine antibody (CST) to detect autophosphorylation of ALPK1. […] The range of concentrations of HBP and HMP-1bP used in this assay (1 nM, 10 nM, 100 nM) was 10-fold higher than that used for H1b-ADP.

ALPK1 [3] = target: T1, ALPK1; experiment: Cell-free kinase assay of ALPK1-dependent phosphorylation of IκB; assay type: biochemical; settings: 2 nM ALPK1, with or without ATP, 1 hour
Experimental: We next tested whether H1b-ADP-induced autophosphorylation of ALPK1 was effective to activate NFκB using phosphorylation of IκB as a marker for this activity. Phosphorylation assays were performed according to standard protocols and phosphorylated protein was detected by gel electrophoresis and Western blotting using an antibody that detects phosphorylated IκB. Briefly, assays were performed in a 20 μl volume at 25° C. in assay buffer (25 mM HEPES pH 7.5, 50 mM KCl, 0.1 mM EDTA, 0.1 mM EGTA, 2 mM DTT, 1.5 mM CaCl2, 10 mM MgCl2) containing 2 nM ALPK1 and H1b-ADP […] with or without ATP, or either ALPK1 alone or H1b-ADP alone, both in the presence of ATP. After 1 hour of incubation, the reaction was loaded to denaturing gel for protein electrophoresis and Western was performed to detect phosphorylation of IkB using p-IkB antibody (Abcam).

ALPK1 [4] = target: T1, ALPK1; experiment: In vitro kinase assay of ALPK1-dependent TIFA phosphorylation; assay type: biochemical
Experimental: We performed an in vitro kinase assay with H1b-ADP and H1b-ADP-6L along with ALPK1 protein (2 nM), and TIFA protein (1.6 uM) in kinase buffer containing 50 uM ATP. TIFA phosphorylation was analyzed by denaturing gel electrophoresis followed by western blotting using an anti-phosphothreonine antibody. H1b-ADP or H1b-ADP-6L was added at 2 nM, 0.4 nM, 80 pM, 16 pM, and 3 pM.
To test this, we performed an in vitro kinase reaction for ALPK1-dependent TIFA phosphorylation in the presence of either HBP or HIdA purified from E. coli containing inactivated HIdE, or in the presence of HBP and HIdA purified from the same HIdE wild-type E. coli used in the previous experiments. Phosphorylated TIFA (three concentrations, 1%, 0.2% and […]) was detected as described above by denaturing gel electrophoresis followed by Western analysis.

[5] = test system: phosphatase activity in the serum; experiment: Incubation of H1b-ADP with FBS, product analysed by LC-MS; assay type: in vitro ADME, bovine; settings: incubated with FBS, LC-MS; AMP formed
From the text: FBS contains 110-352 U/ml alkaline phosphatase.

[6] = test system: mouse bone marrow-derived macrophages; experiment: Cxcl1 mRNA expression in mouse bone marrow-derived macrophages (qPCR); assay type: cell-based; settings: 0.4 nM or 2 nM, 2.5 hours
Experimental: In these experiments, mouse bone marrow-derived macrophages were treated with 0.4 nM or 2 nM H1b-ADP for 2.5 hours and harvested for mRNA expression analysis of Cxcl1 by qPCR. […] Accordingly, very low doses of H1b-ADP, or an agonist thereof, may be used to enhance or potentiate an immune response in a local tissue.

ALPK1 [7] = target: T1, ALPK1; experiment: IL8 secretion in HEK293 cells (IL8 ELISA) as indicator of ALPK1 activation; settings: cells cultured with fetal bovine, human or mouse serum
Experimental: We pre-mixed H1b-ADP with phosphatase inhibitor sodium orthovanadate (Na3VO4) before incubation with FBS.
In these experiments, serial dilutions of the compounds were added to the tissue culture media of HEK293 cells with (FIG. 27B, FIG. 28B, FIG. 29B) or without (FIG. 26, FIG. 27A, FIG. 28A, FIG. 29A) 10% FBS, as indicated in the figures. After 4 hours, the cell supernatant was collected and analyzed for IL8 concentration using IL8 ELISA (BD) as an indicator of ALPK1 activation.

ALPK1 [8] = target: T1, ALPK1; experiment: IL-8 and TNFα mRNA expression in HEK293 cells with control or ALPK1-directed siRNA; assay type: cell-based; set-up: ALPK1-directed small interfering RNA (siRNA) to silence ALPK1 expression in HEK293 cells; endogenous in cells; host or cells: HEK293
Experimental: To test whether HBP, HMP-1bP, and H1b-ADP were able to induce cytokine expression in an ALPK1 dependent manner, we used an ALPK1-directed small interfering RNA (siRNA) to silence ALPK1 expression in HEK293 cells. Cells were plated (1×10^4 cells/well) into 96-well plates and transfected with either control siRNA or ALPK1-directed siRNA according to the manufacturer's protocols (Lipofectamine™ RNAiMax™, Invitrogen 13778075). Following 2 days of culture, either (1) HBP (500 uM, 100 uM, 20 uM, FIG. 2A-2B) (2) HMP-1bP (500 uM, 100 uM, FIG. 3A-3B), (3) H1b-ADP (100 nM, 20 nM, 4 nM, 0.8 nM, FIG. 4A-4B) was added to culture medium and cells were harvested 4 hours later.

[9] = 4 hours, control vs ALPK1-directed siRNA

T1 sequence (Q96QP1 whole entry): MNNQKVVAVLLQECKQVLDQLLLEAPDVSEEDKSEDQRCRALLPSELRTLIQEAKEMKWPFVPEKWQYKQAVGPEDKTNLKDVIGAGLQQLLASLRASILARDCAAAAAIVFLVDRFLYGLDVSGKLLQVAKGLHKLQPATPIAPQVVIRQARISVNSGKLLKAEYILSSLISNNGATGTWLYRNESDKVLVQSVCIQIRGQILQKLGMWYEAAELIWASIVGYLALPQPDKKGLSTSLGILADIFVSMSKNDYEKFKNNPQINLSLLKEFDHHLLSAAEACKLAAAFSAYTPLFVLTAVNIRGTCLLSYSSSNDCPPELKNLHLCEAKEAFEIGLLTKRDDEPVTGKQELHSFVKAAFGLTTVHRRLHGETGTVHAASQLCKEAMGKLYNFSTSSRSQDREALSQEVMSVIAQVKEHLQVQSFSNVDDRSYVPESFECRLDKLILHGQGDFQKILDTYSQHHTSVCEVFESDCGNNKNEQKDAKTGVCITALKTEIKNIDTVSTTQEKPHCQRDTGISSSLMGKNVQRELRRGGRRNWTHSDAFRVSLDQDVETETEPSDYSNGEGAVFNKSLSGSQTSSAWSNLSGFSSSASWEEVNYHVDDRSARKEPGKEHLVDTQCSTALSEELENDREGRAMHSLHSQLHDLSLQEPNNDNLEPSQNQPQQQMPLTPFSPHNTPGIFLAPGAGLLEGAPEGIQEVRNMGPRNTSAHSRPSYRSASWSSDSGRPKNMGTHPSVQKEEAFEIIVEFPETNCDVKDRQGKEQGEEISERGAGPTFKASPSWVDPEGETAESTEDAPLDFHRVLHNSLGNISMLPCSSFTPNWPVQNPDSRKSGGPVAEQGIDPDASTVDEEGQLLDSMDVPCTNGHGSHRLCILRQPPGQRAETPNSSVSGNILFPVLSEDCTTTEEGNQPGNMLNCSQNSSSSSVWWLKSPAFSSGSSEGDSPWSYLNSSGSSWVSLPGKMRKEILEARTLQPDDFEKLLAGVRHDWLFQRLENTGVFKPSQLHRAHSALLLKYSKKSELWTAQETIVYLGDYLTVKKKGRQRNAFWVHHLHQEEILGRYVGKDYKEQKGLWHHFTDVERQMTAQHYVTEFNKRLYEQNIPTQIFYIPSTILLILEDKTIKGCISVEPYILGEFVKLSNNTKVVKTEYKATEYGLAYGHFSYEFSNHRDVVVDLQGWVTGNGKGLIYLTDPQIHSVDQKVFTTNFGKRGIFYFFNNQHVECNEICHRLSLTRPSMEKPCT

## Nc1ncnc2c1ncn2[C@@H]1O[C@H](COP(=O)(O)OP(=O)(O)O[C@@H]2O[C@H]([C@H](O)CO)[C@@H](O)[C@H](O)[C@@H]2O)[C@@H](O)[C@H]1O [Compound H1b-ADP, D-glycero-D-manno-heptose-1β-ADP]
ALPK1 [1]; 1 uM, 5 uM, 25 uM, or 125 uM
  thermal shift / direct binding to ALPK1: able to directly bind to ALPK1
ALPK1 [1]; at 5 uM, 25 uM, and 125 uM
  thermal shift of ALPK1: more than 1 degree
ALPK1 [2]
  autophosphorylation of ALPK1: detected only in the presence of H1b-ADP
ALPK1 [3]
  IkB phosphorylation: detected only in the presence of both ALPK1 and H1b-ADP in the presence of ATP
ALPK1 [4]; ALPK1 2 nM, TIFA 1.6 uM, 50 uM ATP, 2 nM to 3 pM
  TIFA phosphorylation (ALPK1-dependent signaling): activated ALPK1-dependent signaling
ALPK1 [4]; FIG. 7, chemically-synthesized compounds
  phosphorylation of the ALPK1 substrate TIFA: TIFA is phosphorylated only in the presence of H1b-ADP
[5]
  H1b-ADP amount with increasing incubation time: declined
[6]
  Cxcl1 mRNA expression, fold change over non-treated control: dose-dependent response
ALPK1 [7]
  activity to activate ALPK1 in HEK293 cells (IL8 secretion): greatly declined
ALPK1 [8]; [9]
  IL-8 mRNA expression: increased in an ALPK1-dependent manner
  TNFα mRNA expression: increased in an ALPK1-dependent manner
ALPK1 [8]; FIG. 5
  concentration at which IL-8 and TNFα mRNA expression were induced: 10 nM
